Laboratory results reported in PubChem BioAssay (NCI).
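Following 48 hours of exposure in 96-well plates, responses at five concentrations were used to interpolate endpoints linearly. Abbreviation: GI50, concentration required for 50% inhibition of growth. The concentration for full growth arrest is given as TGI.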

Experiments:
Assay in all cases: NCI tumour cell line growth inhibition, 48 h
IGROV1 ovarian = system: IGROV1 ovarian
KM12 colon = system: KM12 colon
SNB-75 CNS = system: SNB-75 CNS
ACHN renal = system: ACHN renal
SN12C renal = system: SN12C renal
NCI-H23 lung = system: NCI-H23 lung
HS 578T breast = system: HS 578T breast
SNB-19 CNS = system: SNB-19 CNS
NCI-H522 lung = system: NCI-H522 lung
HT29 colon = system: HT29 colon
OVCAR-8 ovarian = system: OVCAR-8 ovarian
RXF 393 renal = system: RXF 393 renal
COLO 205 colon = system: COLO 205 colon
CCRF-CEM leukemia = system: CCRF-CEM leukemia
LOX IMVI melanoma = system: LOX IMVI melanoma
A549 NSCLC = system: A549 NSCLC
HCT-116 colon = system: HCT-116 colon
SR leukemia = system: SR leukemia
RPMI-8226 leukemia = system: RPMI-8226 leukemia
MDA-MB-231 breast = system: MDA-MB-231 breast
SF-539 CNS = system: SF-539 CNS
MCF7 breast = system: MCF7 breast
DU-145 prostate = system: DU-145 prostate
NCI/ADR-RES ovarian = system: NCI/ADR-RES ovarian
HCC-2998 colon = system: HCC-2998 colon
UACC-257 melanoma = system: UACC-257 melanoma
EKVX NSCLC = system: EKVX NSCLC
SW-620 colon = system: SW-620 colon
M14 melanoma = system: M14 melanoma
SF-295 CNS = system: SF-295 CNS
MDA-MB-435 = system: MDA-MB-435
MOLT-4 leukemia = system: MOLT-4 leukemia
HL-60(TB) leukemia = system: HL-60(TB) leukemia
T-47D breast = system: T-47D breast
TK-10 renal = system: TK-10 renal
HCT-15 colon = system: HCT-15 colon
OVCAR-4 ovarian = system: OVCAR-4 ovarian
UO-31 renal = system: UO-31 renal
SK-MEL-28 melanoma = system: SK-MEL-28 melanoma
PC-3 prostate = system: PC-3 prostate
OVCAR-3 ovarian = system: OVCAR-3 ovarian
MALME-3M melanoma = system: MALME-3M melanoma
CAKI-1 renal = system: CAKI-1 renal
HOP-92 NSCLC = system: HOP-92 NSCLC
K-562 leukemia = system: K-562 leukemia
A498 renal = system: A498 renal
OVCAR-5 ovarian = system: OVCAR-5 ovarian
SK-OV-3 ovarian = system: SK-OV-3 ovarian
HOP-62 NSCLC = system: HOP-62 NSCLC
SK-MEL-5 melanoma = system: SK-MEL-5 melanoma
UACC-62 melanoma = system: UACC-62 melanoma
786-0 renal = system: 786-0 renal
U251 CNS = system: U251 CNS
BT-549 breast = system: BT-549 breast
NCI-H460 lung = system: NCI-H460 lung
SK-MEL-2 melanoma = system: SK-MEL-2 melanoma
NCI-H226 lung = system: NCI-H226 lung
SF-268 CNS = system: SF-268 CNS

SMILES: Cc1ccc(C[P+](c2ccccc2)(c2ccccc2)c2ccccc2)cc1
- GI50 (IGROV1 ovarian): 2330 nM
- TGI (IGROV1 ovarian): > 100000 nM
- GI50 (KM12 colon): 438 nM
- TGI (KM12 colon): 4500 nM
- GI50 (SNB-75 CNS): 1550 nM
- TGI (SNB-75 CNS): 18800 nM
- GI50 (ACHN renal): 5940 nM
- TGI (ACHN renal): > 74900 nM
- GI50 (SN12C renal): 1790 nM
- TGI (SN12C renal): 23700 nM
- GI50 (NCI-H23 lung): 554 nM
- TGI (NCI-H23 lung): 5460 nM
- GI50 (HS 578T breast): 366 nM
- TGI (HS 578T breast): 3110 nM
- GI50 (SNB-19 CNS): 2180 nM
- TGI (SNB-19 CNS): > 39500 nM
- GI50 (NCI-H522 lung): 750 nM
- GI50 (HT29 colon): 427 nM
- TGI (HT29 colon): > 41600 nM
- GI50 (OVCAR-8 ovarian): 781 nM
- TGI (OVCAR-8 ovarian): 4650 nM
- GI50 (RXF 393 renal): 3240 nM
- TGI (RXF 393 renal): 20300 nM
- GI50 (COLO 205 colon): 740 nM
- TGI (COLO 205 colon): 6700 nM
- GI50 (CCRF-CEM leukemia): 1310 nM
- GI50 (LOX IMVI melanoma): 1070 nM
- TGI (LOX IMVI melanoma): 4240 nM
- GI50 (A549 NSCLC): 684 nM
- GI50 (HCT-116 colon): 382 nM
- TGI (HCT-116 colon): 5210 nM
- GI50 (SR leukemia): 1040 nM
- GI50 (RPMI-8226 leukemia): 201 nM
- TGI (RPMI-8226 leukemia): 18000 nM
- GI50 (MDA-MB-231 breast): 2540 nM
- TGI (MDA-MB-231 breast): 29300 nM
- GI50 (SF-539 CNS): 2150 nM
- TGI (SF-539 CNS): > 46400 nM
- GI50 (MCF7 breast): 701 nM
- TGI (MCF7 breast): > 33000 nM
- GI50 (DU-145 prostate): 1380 nM
- TGI (DU-145 prostate): 43400 nM
- GI50 (NCI/ADR-RES ovarian): 37700 nM
- TGI (NCI/ADR-RES ovarian): > 100000 nM
- GI50 (HCC-2998 colon): 441 nM
- TGI (HCC-2998 colon): 6410 nM
- GI50 (UACC-257 melanoma): 267 nM
- TGI (UACC-257 melanoma): 3560 nM
- GI50 (EKVX NSCLC): 369 nM
- TGI (EKVX NSCLC): > 58600 nM
- GI50 (SW-620 colon): 1360 nM
- TGI (SW-620 colon): 12200 nM
- GI50 (M14 melanoma): 1320 nM
- TGI (M14 melanoma): 11100 nM
- GI50 (SF-295 CNS): 990 nM
- TGI (SF-295 CNS): 8110 nM
- GI50 (MDA-MB-435): 515 nM
- TGI (MDA-MB-435): 5400 nM
- GI50 (MOLT-4 leukemia): 2440 nM
- TGI (MOLT-4 leukemia): > 21700 nM
- GI50 (HL-60(TB) leukemia): 455 nM
- TGI (HL-60(TB) leukemia): 3360 nM
- GI50 (T-47D breast): 314 nM
- GI50 (TK-10 renal): 1710 nM
- TGI (TK-10 renal): 23400 nM
- GI50 (HCT-15 colon): 11700 nM
- TGI (HCT-15 colon): > 73100 nM
- GI50 (OVCAR-4 ovarian): 768 nM
- TGI (OVCAR-4 ovarian): > 100000 nM
- GI50 (UO-31 renal): 6080 nM
- TGI (UO-31 renal): 39400 nM
- GI50 (SK-MEL-28 melanoma): 987 nM
- TGI (SK-MEL-28 melanoma): 10600 nM
- GI50 (PC-3 prostate): 997 nM
- TGI (PC-3 prostate): > 100000 nM
- GI50 (OVCAR-3 ovarian): 638 nM
- TGI (OVCAR-3 ovarian): 5190 nM
- GI50 (MALME-3M melanoma): 428 nM
- TGI (MALME-3M melanoma): 14500 nM
- GI50 (CAKI-1 renal): 486 nM
- TGI (CAKI-1 renal): 17300 nM
- GI50 (HOP-92 NSCLC): 768 nM
- TGI (HOP-92 NSCLC): 22200 nM
- GI50 (K-562 leukemia): 574 nM
- TGI (K-562 leukemia): > 24600 nM
- GI50 (A498 renal): 1840 nM
- TGI (A498 renal): 7400 nM
- GI50 (OVCAR-5 ovarian): 1930 nM
- TGI (OVCAR-5 ovarian): > 25200 nM
- GI50 (SK-OV-3 ovarian): 2570 nM
- TGI (SK-OV-3 ovarian): > 26600 nM
- GI50 (HOP-62 NSCLC): 1550 nM
- TGI (HOP-62 NSCLC): 6280 nM
- GI50 (SK-MEL-5 melanoma): 321 nM
- TGI (SK-MEL-5 melanoma): 1270 nM
- GI50 (UACC-62 melanoma): 907 nM
- TGI (UACC-62 melanoma): 14100 nM
- GI50 (786-0 renal): 1710 nM
- TGI (786-0 renal): 8020 nM
- GI50 (U251 CNS): 628 nM
- TGI (U251 CNS): > 39300 nM
- GI50 (BT-549 breast): 671 nM
- TGI (BT-549 breast): 14300 nM
- GI50 (NCI-H460 lung): 760 nM
- TGI (NCI-H460 lung): 6990 nM
- GI50 (SK-MEL-2 melanoma): 2120 nM
- TGI (SK-MEL-2 melanoma): > 100000 nM
- GI50 (NCI-H226 lung): 1730 nM
- TGI (NCI-H226 lung): > 25800 nM
- GI50 (SF-268 CNS): 2700 nM
- TGI (SF-268 CNS): > 57800 nM
